# Values quoted from earlier work as cited in patent US20090286795A1, “USE OF VASCULAR ENDOTHELIAL GROWTH FACTOR RECEPTOR INHIBITORS FOR THE TREATMENT OF CANCER” (priority 2006, published 2009).
# Details: studies in humans
structure (smiles),measurement,value
"Clc1ccc(Nc2nnc(Cc3ccncc3)c3ccccc23)cc1 [PTK787, 1-(4-chloroanilino)-4-(4-pyridylmethyl)phthalazine]",tolerability in humans,well tolerated
same,tumor vascular permeability,reduce tumor vascular permeability
